These are literature values, as cited in patent US6750064B2, “Methods of screening for possible solid forms” (S.S.C.I. Inc., priority 2000, dated 2004).

For the data set the following is noted: two hours after the drug was administered.

`CO[C@@H]1[C@@H](OC(N)=O)[C@@H](O)[C@H](Oc2ccc3c(O)c(NC(=O)c4ccc(O)c(CC=C(C)C)c4)c(=O)oc3c2C)OC1(C)C` [novobiocin amorphous form, novobiocin]: the concentration of novobiocin in dog plasma is 29300 ng/mL.
As to `CO[C@@H]1[C@@H](OC(N)=O)[C@@H](O)[C@H](Oc2ccc3c(O)c(NC(=O)c4ccc(O)c(CC=C(C)C)c4)c(=O)oc3c2C)OC1(C)C` [crystalline novobiocin, novobiocin], the “concentration of novobiocin in dog plasma” value is “no drug detectable”.
